Columns and labels:
Assay type in all cases: cell-based, human
[1] = tested on: Venular endothelial cells; assay: BioMAP Diversity PLUS 4H system (Th2 type vascular inflammation); settings: 6.7 μM
Method: This study examined activities of small molecules discovered in dolphin serum that had protective profiles against diseases of aging which can impact quality of life and longevity. These molecules were tested across 12 human primary cell-based systems as part of DiscoverX's BioMAP Diversity Plus program. These systems are designed to model complex human tissue and disease biology of the vasculature, skin, lung, and inflammatory tissues. Quantitative measurements of biomarker activities across this broad panel, along with comparative analysis of biological activities of known bioactive agents were used to predict and compare the efficacy and function of the four compounds. […]
(§1) Each test agent generates a signature BioMAP profile that is created from the changes in protein biomarker readouts within individual system environments. Biomarker readouts (7-17 per system) are selected for therapeutic and biological relevance, are predictive for disease outcomes or specific drug effects and are validated using agents with known mechanism of action (MoA). Each readout is measured quantitatively by immune-based methods that detect protein (e.g., ELISA) or functional assays that measure proliferation and viability. BioMAP readouts are diverse and include cell surface receptors, cytokines, chemokines, matrix molecules and enzymes. […]

[2] = tested on: Macrophages, venular endothelial cells; assay: BioMAP Diversity PLUS lMphg system (Th1 type chronic inflammation, macrophage activation); settings: /Mphg system
Procedure, shortened: (§2)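 Primary human cells from healthy donors were stimulated with cytokines or growth factors to model tissue inflammation or remodelling. Compounds were tested at 740 nm, 2.2, 6.7 and 20 μM. Biomarker readouts were measured by immune-based protein detection (e.g., ELISA) or by proliferation/viability assays.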

[3] = tested on: Dermal fibroblasts; assay: BioMAP Diversity PLUS HDF3CGF system (wound healing and matrix/tissue remodeling); settings: HDF3CGF system; 6.7 μM
Procedure, shortened: (§3)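 Human primary cells from healthy donors, stimulated to model each disease setting, were exposed to compounds at 740 nm and 2.2, 6.7 and 20 μM. Readouts are 7-17 protein biomarkers per system measured by ELISA-type immunoassays, plus proliferation and viability assays.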

[4] = tested on: Bronchial epithelial cells; assay: BioMAP Diversity PLUS BE3C system (Th1 type lung inflammation)
Method: (§4) This study examined activities of small molecules discovered in dolphin serum that had protective profiles against diseases of aging which can impact quality of life and longevity. These molecules were tested across 12 human primary cell-based systems as part of DiscoverX's BioMAP Diversity Plus program. These systems are designed to model complex human tissue and disease biology of the vasculature, skin, lung, and inflammatory tissues. Quantitative measurements of biomarker activities across this broad panel, along with comparative analysis of biological activities of known bioactive agents were used to predict and compare the efficacy and function of the four compounds. Compounds were tested at four concentrations (740 nm and 2.2, 6.7 and 20 μM).
BioMAP panels consist of human primary cell-based systems designed to model different aspects of the human body in an in vitro format. The 12 systems in the Diversity PLUS panel allow test agent characterization in an unbiased way across a broad set of systems modeling various human disease states. BioMAP systems are constructed with one or more primary cell types from healthy human donors, with stimuli (such as cytokines or growth factors) added to capture relevant signaling networks that naturally occur in human tissue or pathological conditions. Vascular biology is modeled in both a Th1 (3C system) and a Th2 (4H system) inflammatory environment, as well as in a Th1 inflammatory state specific to arterial smooth muscle cells (CASM3C system). Additional systems recapitulate aspects of the systemic immune response including monocyte-driven Th1 inflammation (LPS system) or T cell stimulation (SAg system), chronic Th1 inflammation driven by macrophage activation (lMphg system) and the T cell-dependent activation of B cells that occurs in germinal centers (BT system). The BE3C system (Th1) and the BF4T system (Th2) represent airway inflammation of the lung, while the MyoF system models myofibroblast-lung tissue remodeling. Lastly, skin biology is addressed in the KF3CT system modeling Th1 cutaneous inflammation and the HDF3CGF system modeling wound healing.
Each test agent generates a signature BioMAP profile that is created from the changes in protein biomarker readouts within individual system environments. Biomarker readouts (7-17 per system) are selected for therapeutic and biological relevance, are predictive for disease outcomes or specific drug effects and are validated using agents with known mechanism of action (MoA). Each readout is measured quantitatively by immune-based methods that detect protein (e.g., ELISA) or functional assays that measure proliferation and viability. BioMAP readouts are diverse and include cell surface receptors, cytokines, chemokines, matrix molecules and enzymes. In total, the Diversity PLUS panel contains 148 biomarker readouts that capture biological changes that occur within the physiological context of the particular BioMAP system. Specific BioMAP activities have been correlated to in vivo biology, and multiparameter BioMAP profiles have been used to distinguish compounds based on MoA and target selectivity across diverse physiological systems.
The Diversity PLUS panel allows test agent characterization in an unbiased way across a broad set of systems modeling various human disease states. These systems are designed to model complex human tissue and disease biology of the vasculature, skin, lung, and inflammatory tissues. Quantitative measurements of 148 biomarker activities across this broad panel, along with comparative analysis of biological activities from known bioactive agents, were used to predict and compare the efficacy and function of each selected compound at four concentrations (740 nm and 2.2, 6.7 and 20 μM). […]

[5] = tested on: Lung fibroblasts; assay: BioMAP Diversity PLUS MyoF system (myofibroblast differentiation and tissue remodeling)
Procedure, shortened: as §2

[6] = tested on: Peripheral blood mononuclear cells, B cells; assay: BioMAP Diversity PLUS BT system (T cell dependent B cell activation); settings: BT system
Procedure, shortened: as §3

[7] = tested on: Venular endothelial cells, peripheral blood mononuclear cells; assay: BioMAP Diversity PLUS SAg system (T cell stimulation, Th1 type chronic inflammation); settings: SAg system; 6.7 μM
Procedure, shortened: as §2

[8] = tested on: Keratinocytes, dermal fibroblasts; assay: BioMAP Diversity PLUS KF3CT system (Th1 type cutaneous inflammation)
Method: as §4
BioMAP panels consist of human primary cell-based systems designed to model different aspects of the human body in an in vitro format. The 12 systems in the Diversity PLUS panel allow test agent characterization in an unbiased way across a broad set of systems modeling various human disease states. […]
as §1, with “enzymes. In total, the Diversity PLUS panel contains 148 biomarker readouts that capture biological changes that occur within the physiological context of the particular BioMAP system.” for “enzymes.”

CCCCCCCCCCCCCCC(=O)O[C@H](CC(=O)[O-])C[N+](C)(C)C [Pentadecanoylcarnitine (C15), pentadecanoylcarnitine]
Significant log10 reduction compared to nontreated controls: Vascular endothelial growth factor s (VEGFR2) [1]: −0.11 log10 | Significant log10 reduction compared to nontreated controls: Monocyte chemoattractant protein 1 (MCP-1) ([2]; 2.2 μM): −0.17 log10 | Significant log10 reduction compared to nontreated controls: Monocyte chemoattractant protein 1 (MCP-1) ([2]; 6.7 μM): −0.25 log10 | Significant log10 reduction compared to nontreated controls: Secreted interleukin 10 (IL-10) ([2]; 6.7 μM): −0.13 log10 | Significant log10 reduction compared to nontreated controls: Matrix metalloproteinase 1 (MMP-1) [3]: −0.12 log10 | Significant log10 reduction compared to nontreated controls: Interferon-inducible T cell alpha chemoattractant (I-TAC)/CXCL11 ([4]; 0.7 μM): −0.13 log10 | Significant log10 reduction compared to nontreated controls: Interleukin 1 alpha (IL-1α) ([4]; 0.7 μM): −0.06 log10 | Significant log10 reduction compared to nontreated controls: Interferon-inducible T cell alpha chemoattractant (I-TAC)/CXCL11 ([4]; 2.2 μM): −0.17 log10 | Significant log10 reduction compared to nontreated controls: Interleukin 1 alpha (IL-1α) ([4]; 2.2 μM): −0.06 log10 | Significant log10 reduction compared to nontreated controls: Matrix metalloproteinase 1 (MMP-1) ([4]; 2.2 μM): −0.05 log10 | Significant log10 reduction compared to nontreated controls: Matrix metalloproteinase 9 (MMP-9) ([4]; 2.2 μM): −0.08 log10 | Significant log10 reduction compared to nontreated controls: Plasminogen activation inhibitor 1 (PAI-1) ([4]; 2.2 μM): −0.08 log10 | Significant log10 reduction compared to nontreated controls: Tissue plasminogen activator (tPA) ([4]; 2.2 μM): −0.11 log10 | Significant log10 reduction compared to nontreated controls: Human leukocyte antigen-DR isotype (HLA-DR) ([4]; 6.7 μM): −0.63 log10 | Significant log10 reduction compared to nontreated controls: Interferon gamma-induced protein 10 (IP-10)/CXCL10 ([4]; 6.7 μM): −0.1 log10 | Significant log10 reduction compared to nontreated controls: Interferon-inducible T cell alpha chemoattractant (I-TAC)/CXCL11 ([4]; 6.7 μM): −0.54 log10 | Significant log10 reduction compared to nontreated controls: Interleukin 1 alpha (IL-1α) ([4]; 6.7 μM): −0.19 log10 | Significant log10 reduction compared to nontreated controls: Interleukin 8 (IL-8)/CXCL8 ([4]; 6.7 μM): −0.21 log10 | Significant log10 reduction compared to nontreated controls: Matrix metalloproteinase 1 (MMP-1) ([4]; 6.7 μM): −0.27 log10 | Significant log10 reduction compared to nontreated controls: Matrix metalloproteinase 9 (MMP-9) ([4]; 6.7 μM): −0.34 log10 | Significant log10 reduction compared to nontreated controls: Monokine induced by gamma interferon (MIG)/CXCL9 ([4]; 6.7 μM): −0.60 log10 | Significant log10 reduction compared to nontreated controls: Plasminogen activation inhibitor 1 (PAI-1) ([4]; 6.7 μM): −0.24 log10 | Significant log10 reduction compared to nontreated controls: Tissue plasminogen activator (tPA) ([4]; 6.7 μM): −0.43 log10 | Significant log10 reduction compared to nontreated controls: Alpha smooth muscle actin (αSMA) ([5]; 0.7 μM): −0.16 log10 | Significant log10 reduction compared to nontreated controls: Alpha smooth muscle actin (αSMA) ([5]; 2.2 μM): −0.18 log10 | Significant log10 reduction compared to nontreated controls: Alpha smooth muscle actin (αSMA) ([5]; 6.7 μM): −0.26 log10 | Significant log10 reduction compared to nontreated controls: Secreted interleukin 2 (IL-2) ([6]; 2.2 μM): −0.11 log10 | Significant log10 reduction compared to nontreated controls: Secreted interleukin 6 (IL-6) ([6]; 6.7 μM): −0.13 log10 | Significant log10 reduction compared to nontreated controls: Tumor necrosis factor alpha (TNFα) ([6]; 6.7 μM): −0.10 log10 | Significant log10 reduction compared to nontreated controls: E-selectin [7]: −0.11 log10 | Significant log10 reduction compared to nontreated controls: T cell proliferation [7]: −0.17 log10 | Significant log10 reduction compared to nontreated controls: Interferon gamma-induced protein 10 (IP-10)/CXCL10 ([8]; 0.7 μM): −0.14 log10 | Significant log10 reduction compared to nontreated controls: Interferon gamma-induced protein 10 (IP-10)/CXCL10 ([8]; 2.2 μM): −0.09 log10 | Significant log10 reduction compared to nontreated controls: Interferon gamma-induced protein 10 (IP-10)/CXCL10 ([8]; 6.7 μM): −0.10 log10

Reference: US11992473B2, “Compositions and methods for diagnosis and treatment of conditions related to the quality of aging and longevity” (Epitracker, Inc., priority 2018, dated 2024)
